Assays:
[1] = tested on: cAMP; assay: Cyclic AMP content of whole kidneys of PCK rats (Direct cAMP ELISA); assay type: in vivo, rat; details: for cAMP: whole kidney
Experimental: Experimental animals and study design. PCK rats were divided into control and treatment groups at four weeks of age (n=59, ˜10 animals per treatment group and gender). Lixivaptan was dissolved in DMSO and added to ground rodent chow (Regrind Labdiet 5053) at 0.5% or 1.0% concentration (w/w) by homogenous mixing, whereas control animals received the same diet without lixivaptan. Animals were exposed to control- or lixivaptan-diet for eight weeks and were sacrificed at twelve weeks of age.
Experimental Protocol. Twenty-four hour urine outputs in metabolic cages were collected twice at 6 and 9 weeks of age (Study week 3 and 6, respectively). At the end of the dosing period, the animals were weighed and anesthetized with ketamine 90 mg/kg and xylazine 10 mg/kg, IP. Blood samples were obtained by cardiac puncture for determination of plasma electrolytes, creatinine and plasma urea levels. The right kidney and part of the liver were placed into pre-weighed vials containing 10% formaldehyde in phosphate buffer (pH 7.4). The tissues were embedded in paraffin for histological studies. The left kidneys were immediately frozen in liquid nitrogen for determination of cAMP.
The kidneys were weighed and ground to fine powder under liquid nitrogen in a stainless steel mortar and homogenized in 10 volumes of 0.1M HCl. The protein concentration was measured by using BCA Protein Assay Kit (Pierce, Ill.). After centrifugation at 600 g for 10 min, the supernatant was further diluted in 0.1M HCl and run directly in the assay or stored frozen for later analysis. The cAMP content was assessed by Direct cAMP ELISA kit, according to the manufacturer's instructions (Enzo Life Sciences, Inc. Farmingdale, N.Y.). Samples were taken in triplicate. The results were expressed in pmol/mg of protein.

[2] = target: T1, V2 receptor (Homo sapiens, UniProt P30518); assay: Ascending multiple-dose, safety and tolerance study in healthy adult male subjects
T1 sequence (P30518 whole entry): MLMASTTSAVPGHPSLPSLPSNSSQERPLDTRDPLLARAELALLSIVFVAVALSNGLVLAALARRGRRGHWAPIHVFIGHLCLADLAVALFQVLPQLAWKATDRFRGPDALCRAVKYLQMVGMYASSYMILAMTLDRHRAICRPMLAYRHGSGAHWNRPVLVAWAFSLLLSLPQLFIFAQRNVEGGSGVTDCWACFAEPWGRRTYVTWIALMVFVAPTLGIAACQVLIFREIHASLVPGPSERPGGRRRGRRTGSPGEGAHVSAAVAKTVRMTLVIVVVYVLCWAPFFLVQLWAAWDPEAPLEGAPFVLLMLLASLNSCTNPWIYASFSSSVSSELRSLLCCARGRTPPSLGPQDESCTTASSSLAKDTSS
Experimental: (§1) Lixivaptan in healthy volunteers was tested in a randomized, double-blind, placebo-controlled, ascending multiple-dose, safety and tolerance clinical study in 98 healthy male subjects.

[3] = Measured Log P; assay type: physicochemical
[4] = Clinical observation of ALT elevations, 400 mg BID for 7 days; assay type: in vivo, human; details: 67 individuals
[5] = In-clinic pharmacokinetic study: adverse events, serum osmolality, urine output; assay type: in vivo, human
Experimental: Subjects received lixivaptan at total daily doses of 100 mg, 200 mg, or 400 mg (administered as 50, 100, and 200 mg Q12H). Subjects were to be enrolled into the study in two cohorts of 30 subjects, but actual cohort numbers were 23 and 34 subjects. Of the 57 subjects enrolled in the study, 27 were female (47.4%) and 30 were male (52.6%). The majority of subjects were White (35/57, 61.4%) and of Hispanic or Latino ethnicity (46/57, 80.7%). The overall mean age of subjects in the study was 33.6 (8.31) years, and the overall mean body mass index for subjects was 26.2 (3.79). There were to be approximately 20 subjects enrolled per dose level. An approximately equal number of males and females were enrolled at each dose level such that neither gender was represented by fewer than 8 subjects. The starting date for each cohort subjects was staggered by 7 days for logistical purposes. Screening evaluations were performed within 28 days prior to Day 1.
The following doses of lixivaptan were administered to subjects in this study: (a) Lixivaptan 100 mg, administered as 50 mg [1×50 mg capsule] every 12 hours×15 doses; (b) lixivaptan 200 mg, administered as 100 mg [2×50 mg capsules] every 12 hours×15 doses; and (c) Lixivaptan 400 mg, administered as 200 mg [4×50 mg capsules] every 12 hours×15 doses.
Prior to the morning doses of lixivaptan on Days 1 and 8, subjects fasted for approximately 10 hours prior to lixivaptan administration and 4 hours after lixivaptan administration. All other doses were administered under fasting conditions, either 2 hours before or 2 hours after meals. The study medication was administered with 240 milliliters (mL) room temperature water. Subjects were not to receive any oral fluids, other than those used to administer the dose, for 1 hour before and 1 hour after dose administration. Subjects remained sitting or semi-supine, except to void, for 6 hours following the first two doses. While in the clinic, the subjects refrained from strenuous physical activity.

[6] = target: T2, vasopressin V2 receptor (Homo sapiens, UniProt P30518); assay: Uosm in clinical studies in healthy subjects and various patient populations; assay type: in vivo; details: healthy subjects, hyponatremia patients, ESRD patients
T2 construct: Lixivaptan antagonizes the effects of vasopressin that are mediated by the V2 receptor; from tissue; host or cells: living human subjects (in vivo clinical studies); the receptor is the subjects' own and no tissue was isolated
T2 sequence (P30518 whole entry): as above
Experimental: as §1
Subjects with Syndrome of Inappropriate Anti-Diuretic Hormone (SIADH) secretion were tested in a randomized, double-blind, placebo-controlled, ascending single-dose, safety and tolerance study.

[7] = target: T1, V2 receptor; assay: Single 100 mg oral dose study in ESRD and normal renal function subjects: pharmacodynamics (urine osmolality, vasopressin, urine output); assay type: in vivo; parameters: Lixivaptan antagonizes the effects of vasopressin that are mediated by the V2 receptor; from tissue; host or cells: living human subjects (in vivo clinical studies); the receptor is the subjects' own and no tissue was isolated
Experimental: In this study, the PK of lixivaptan following a single 100 mg oral dose of lixivaptan was evaluated in subjects with end-stage renal disease (ESRD) and control subjects with normal renal function. Pharmacodynamic (PD) evaluations, including vasopressin concentration, serum sodium concentration, urine volume, and urine osmolality were assessed.

Structure (SMILES): Cc1ccc(F)cc1C(=O)Nc1ccc(C(=O)N2Cc3cccn3Cc3ccccc32)c(Cl)c1 [Lixivaptan, 5-fluoro-2-methyl-N-[4-(5H-pyrrolo[2,1-C] [1,4]benzodiazepin-10(11H)-ylcarbonyl)-3-chlorophenyl]benzamide]
- reduction in kidney cAMP levels ([1]; PCK rats, 0.5% lixivaptan, compared to control): 23%
- cAMP ([1]; PCK rats F, 0.5% Lixivaptan): 15.0 ± 4.6 pmol/mg protein
- cAMP ([1]; PCK rats F, 1.0% Lixivaptan): 23.6 ± 8.1 pmol/mg protein
- cAMP ([1]; PCK rats M, 0.5% Lixivaptan): 16.5 ± 5.1 pmol/mg protein
- cAMP ([1]; PCK rats M, 1.0% Lixivaptan): 24.0 ± 12.0 pmol/mg protein
- maintenance of urine osmolality below 300 mOsm/kg ([2]; 300 mg to 800 mg doses (FIG. 3)): up to 12 hours
- suppression of Uosm to values <300 mOsm/kg ([2]; 800 mg dose only): up to 24 hours
- time Uosm remained below iso-osmolar point ([2]; 100-mg dose): 4 h
- time of minimal values of Uosm after drug administration ([2]; across all dose groups): ≤ 2 h
- serum osmolality ([2]; all subjects given lixivaptan): significant dose-related increases
- safety and tolerability ([2]; daily oral doses up to 800 mg, twice daily up to 400 mg, 14 consecutive days, healthy men): safe and well tolerated
- minimal values of Uosm ([2]; doses of 25 mg and higher): < 300 mOsm/L
- urine output, 0-to-24-hour collection interval ([2]; doses of 200 mg or larger, across 14 days, vs placebo): significantly greater urine output than placebo
- urine output, first 4 hours after drug administration ([2]; single dose of 25 mg or higher, vs placebo): significantly greater urine output than placebo
- Uvol (0-to-4-hours) ([2]; single doses of 25 mg and higher (day 1)): doubling
- logP [3]: 1
- ALT elevations in treated individuals [4]: no ALT elevations
- headache considered possibly or probably related to study drug ([5]; 100 mg group): 2 subject
- headache considered possibly or probably related to study drug ([5]; 200 mg group): 1 subject
- asthenia considered possibly or probably related to study drug ([5]; 400 mg group): 1 subject
- headache considered possibly or probably related to study drug ([5]; 400 mg group): 1 subject
- vomiting considered possibly or probably related to study drug ([5]; 400 mg group): 1 subject
- urine output ([5]; Days 1-8): increased
- serum osmolality ([5]; during the study, dose related): mildly increased
- tolerability ([5]; healthy subjects, 50-200 mg Q12H for 7.5 days): well tolerated
- treatment-emergent AE chest discomfort ([5]; of the 57 enrolled subjects): 2 subjects
- treatment-emergent AE constipation ([5]; of the 57 enrolled subjects): 3 subjects
- treatment-emergent AE headache ([5]; of the 57 enrolled subjects): 7 subjects
- urinary osmolality suppressed to levels below target threshold [6]: < 300 mOsm/kg
- Urine osmolality Change from baseline Mean ([7]; 0 to 2 hours postdose, ESRD): −109.0 mosmol/kg
- Urine osmolality Observed Mean ([7]; 0 to 2 hours postdose, ESRD, single 100 mg oral dose): 216.5 mosmol/kg
- Urine osmolality Change from baseline Mean ([7]; 0 to 2 hours postdose, Normal): −398.5 mosmol/kg
- Urine osmolality Observed Mean ([7]; 0 to 2 hours postdose, Normal, single 100 mg oral dose): 132.6 mosmol/kg
- Urine osmolality Change from baseline Mean ([7]; 2 to 4 hours postdose, ESRD): −108.7 mosmol/kg
- Urine osmolality Observed Mean ([7]; 2 to 4 hours postdose, ESRD): 202.4 mosmol/kg
- Urine osmolality Change from baseline Mean ([7]; 2 to 4 hours postdose, Normal): −412.6 mosmol/kg
- Urine osmolality Observed Mean ([7]; 2 to 4 hours postdose, Normal): 109.9 mosmol/kg
- Urine osmolality Change from baseline Mean ([7]; 4 to 8 hours postdose, ESRD): −118.3 mosmol/kg
- Urine osmolality Observed Mean ([7]; 4 to 8 hours postdose, ESRD): 195.1 mosmol/kg
- Urine osmolality Change from baseline Mean ([7]; 4 to 8 hours postdose, Normal): −258.3 mosmol/kg
- Urine osmolality Observed Mean ([7]; 4 to 8 hours postdose, Normal): 272.8 mosmol/kg
- effect on change from baseline in urine osmolality ([7]; ESRD group): markedly reduced
- Urine osmolality Observed Mean ([7]; Predose, ESRD): 311.1 mosmol/kg
- Urine osmolality Observed Mean ([7]; Predose, Normal): 514.7 mosmol/kg
- vasopressin levels ([7]; both renal function groups): elevations of vasopressin levels
- urine output ([7]; normal group): increased urine output

Source: patent publication US11241441B2, “Formulations of lixivaptan for the treatment of polycystic disease” (PALLADIO BIOSCIENCES, INC., priority 2017, dated 2022)
